What was measured:
[1] = test system: Male non-fasted Wistar rats; experiment: Basal blood glucose levels in rats (no glucose challenge); type: in vivo; conditions: oral treatment, extracts 6 mg/kg, blood samples 0-180 min, one-way ANOVA, Student-Newman-Keuls
Protocol: (§1) A common way of testing for an effect of extracts or new chemical entities on blood glucose levels is the glucose challenge test (Verspohl, E. J.: Recommended testing in diabetes research. Planta Med 68 (7): 581-90, 2002) in which rats are given the extract, control, or a known antidiabetic substance with (challenge) and without (basal) an intraperitoneal (i.p.) dose of glucose. The extracts are given orally 30 min. before the glucose challenge. Blood samples are taken sublingual at time points 0, 15, 30, 60, and 120 minutes for the glucose challenge or 0, 30, 60, 120, and 180 minutes for basal blood glucose levels. This sampling scheme ensures to monitor both effects of extracts on basal blood glucose levels over a longer time period and the blood glucose levels after glucose challenge closely enough. […]
(§2) Blood was drawn at the appropriate time points from the sublingual vein after a short halothane anesthesia and stored at 4° C. with addition of heparin. […] The supernatant plasma was taken and analyzed using an autoanalyzer (Merck, Darmstadt). […]
(§3) Both percent and AUC data were analyzed by one-way ANOVA and Student-Newman-Keuls Multiple Comparison Test using Graphpad 4.0 Software, San Diego, USA. The AUC (area under the curve) was calculated using the trapezoidal rule without extensions beyond the last time point measured.

[2] = test system: Male non-fasted Wistar rats; experiment: Glucose challenge test (i.p. glucose) in rats; type: in vivo; conditions: oral treatment 30 min before i.p. glucose; extracts 6 mg/kg; blood samples 0-120 min; one-way ANOVA, Student-Newman-Keuls
Protocol: as §1, §2, §3

| Compound | effect on basal blood glucose levels [1] | effect on lowering the blood glucose levels following the i.p. glucose challenge [2] |
| --- | --- | --- |
| N[C@@H](CC(=O)N1CCn2c(nnc2C(F)(F)F)C1)Cc1cc(F)c(F)cc1F [sitagliptin] | significant effect | significant effect |
| COc1ccc(Cl)cc1C(=O)NCCc1ccc(S(=O)(=O)NC(=O)NC2CCCCC2)cc1 [glyburide] | significant effect | significant effect |
